From the NIST ThermoML archive (doi:10.1021/acs.jced.7b00106)

Settings: Hot wire method

FC(F)(F)/C=C/Cl [(E)-1-chloro-3,3,3-trifluoroprop-1-ene]
Settings	thermal conductivity [W/m/K]
313.49 K, 134 kPa, Gas	0.01209
313.66 K, 195 kPa, Gas	0.01193
313.74 K, 96 kPa, Gas	0.01156
313.74 K, 97 kPa, Gas	0.01206
313.81 K, 164 kPa, Gas	0.01205
314.19 K, 96 kPa, Gas	0.0121
314.29 K, 165 kPa, Gas	0.01203
314.47 K, 132 kPa, Gas	0.01204
314.68 K, 96 kPa, Gas	0.01213
314.8 K, 166 kPa, Gas	0.01203
315 K, 133 kPa, Gas	0.01215
315.2 K, 96 kPa, Gas	0.01218
315.34 K, 166 kPa, Gas	0.01208
315.56 K, 132 kPa, Gas	0.01212
315.75 K, 96 kPa, Gas	0.01223
316.33 K, 96 kPa, Gas	0.01227
321.04 K, 25085 kPa, Liquid	0.08832
321.04 K, 34321 kPa, Liquid	0.09144
321.04 K, 34326 kPa, Liquid	0.09107
321.05 K, 43820 kPa, Liquid	0.0947
321.1 K, 25070 kPa, Liquid	0.08802
321.1 K, 34323 kPa, Liquid	0.09161
321.12 K, 34308 kPa, Liquid	0.0914
321.12 K, 43822 kPa, Liquid	0.09482
321.33 K, 16965 kPa, Liquid	0.08442
321.34 K, 9798 kPa, Liquid	0.08117
321.36 K, 5192 kPa, Liquid	0.07831
321.4 K, 197 kPa, Gas	0.0125
321.4 K, 16967 kPa, Liquid	0.08432
321.41 K, 254 kPa, Gas	0.01268
321.41 K, 460 kPa, Liquid	0.07538
321.42 K, 66597 kPa, Liquid	0.1039
321.43 K, 56114 kPa, Liquid	0.09911
321.44 K, 5187 kPa, Liquid	0.07816
321.44 K, 66587 kPa, Liquid	0.1042
321.45 K, 34301 kPa, Liquid	0.09197
321.46 K, 43814 kPa, Liquid	0.09486
321.47 K, 25082 kPa, Liquid	0.08816
321.47 K, 34329 kPa, Liquid	0.09187
321.47 K, 43832 kPa, Liquid	0.09487
321.48 K, 458 kPa, Liquid	0.07551
321.51 K, 66615 kPa, Liquid	0.1035
321.52 K, 56121 kPa, Liquid	0.0993
321.52 K, 66605 kPa, Liquid	0.1041
321.55 K, 34296 kPa, Liquid	0.09167
321.55 K, 43839 kPa, Liquid	0.09474
321.56 K, 25086 kPa, Liquid	0.08833
321.56 K, 34311 kPa, Liquid	0.09191
321.63 K, 145 kPa, Gas	0.01268
321.7 K, 256 kPa, Gas	0.01247
321.72 K, 196 kPa, Gas	0.01245
321.77 K, 98 kPa, Gas	0.01281
321.78 K, 16953 kPa, Liquid	0.08463
321.81 K, 9811 kPa, Liquid	0.08084
321.85 K, 5178 kPa, Liquid	0.07845
321.86 K, 66588 kPa, Liquid	0.1041
321.88 K, 56118 kPa, Liquid	0.1004
321.89 K, 16957 kPa, Liquid	0.0846
321.91 K, 466 kPa, Liquid	0.07595
321.91 K, 9793 kPa, Liquid	0.08062
321.92 K, 43825 kPa, Liquid	0.09584
321.94 K, 145 kPa, Gas	0.01263
321.94 K, 34296 kPa, Liquid	0.09207
321.94 K, 43828 kPa, Liquid	0.09571
321.96 K, 5173 kPa, Liquid	0.07856
321.96 K, 34304 kPa, Liquid	0.09237
321.97 K, 142 kPa, Gas	0.01247
321.97 K, 25089 kPa, Liquid	0.0883
321.97 K, 66599 kPa, Liquid	0.1033
321.99 K, 66600 kPa, Liquid	0.1033
322 K, 56120 kPa, Liquid	0.09953
322.01 K, 257 kPa, Gas	0.01246
322.01 K, 259 kPa, Gas	0.01279
322.01 K, 462 kPa, Liquid	0.07568
322.04 K, 43829 kPa, Liquid	0.09557
322.05 K, 99 kPa, Gas	0.01242
322.05 K, 194 kPa, Gas	0.01256
322.06 K, 34292 kPa, Liquid	0.09256
322.06 K, 43826 kPa, Liquid	0.09519
322.07 K, 189 kPa, Gas	0.01239
322.08 K, 34300 kPa, Liquid	0.09194
322.09 K, 98 kPa, Gas	0.01259
322.09 K, 25078 kPa, Liquid	0.08798
322.22 K, 122 kPa, Gas	0.0128
322.23 K, 142 kPa, Gas	0.01241
322.25 K, 164 kPa, Gas	0.01289
322.27 K, 260 kPa, Gas	0.0128
322.29 K, 144 kPa, Gas	0.01276
322.3 K, 16963 kPa, Liquid	0.08446
322.32 K, 188 kPa, Gas	0.01244
322.33 K, 99 kPa, Gas	0.01222
322.34 K, 258 kPa, Gas	0.0126
322.36 K, 9801 kPa, Liquid	0.08109
322.36 K, 66579 kPa, Liquid	0.1031
322.38 K, 66598 kPa, Liquid	0.1031
322.39 K, 193 kPa, Gas	0.01261
322.4 K, 5186 kPa, Liquid	0.07821
322.4 K, 56115 kPa, Liquid	0.09929
322.44 K, 98 kPa, Gas	0.01281
322.44 K, 16945 kPa, Liquid	0.08465
322.46 K, 43829 kPa, Liquid	0.09512
322.47 K, 43824 kPa, Liquid	0.09516
322.49 K, 450 kPa, Liquid	0.07575
322.49 K, 9815 kPa, Liquid	0.081
322.49 K, 34282 kPa, Liquid	0.09204
322.5 K, 66578 kPa, Liquid	0.1033
322.51 K, 34308 kPa, Liquid	0.0922
322.51 K, 66603 kPa, Liquid	0.1032
322.52 K, 141 kPa, Gas	0.01234
322.54 K, 260 kPa, Gas	0.01283
322.54 K, 5172 kPa, Liquid	0.07803
322.54 K, 25075 kPa, Liquid	0.08816
322.55 K, 123 kPa, Gas	0.01279
322.56 K, 164 kPa, Gas	0.0126
322.61 K, 99 kPa, Gas	0.01223
322.63 K, 187 kPa, Gas	0.01233
322.63 K, 440 kPa, Liquid	0.0752
322.63 K, 43821 kPa, Liquid	0.09452
322.64 K, 143 kPa, Gas	0.0128
322.64 K, 34270 kPa, Liquid	0.09178
322.66 K, 34302 kPa, Liquid	0.09186
322.71 K, 25078 kPa, Liquid	0.08769
322.72 K, 259 kPa, Gas	0.01251
322.78 K, 192 kPa, Gas	0.01262
322.81 K, 141 kPa, Gas	0.01231
322.82 K, 99 kPa, Gas	0.01285
322.82 K, 260 kPa, Gas	0.01282
322.83 K, 123 kPa, Gas	0.01245
322.89 K, 123 kPa, Gas	0.01281
322.89 K, 164 kPa, Gas	0.01245
322.9 K, 164 kPa, Gas	0.01257
322.9 K, 16956 kPa, Liquid	0.08425
322.91 K, 99 kPa, Gas	0.0122
322.91 K, 66592 kPa, Liquid	0.1026
322.92 K, 186 kPa, Gas	0.0124
322.92 K, 66618 kPa, Liquid	0.1032
322.96 K, 56154 kPa, Liquid	0.09964
322.97 K, 9802 kPa, Liquid	0.08079
323.03 K, 143 kPa, Gas	0.01271
323.05 K, 5181 kPa, Liquid	0.07837
323.06 K, 43815 kPa, Liquid	0.09535
323.07 K, 16973 kPa, Liquid	0.08427
323.07 K, 43817 kPa, Liquid	0.09505
323.08 K, 66614 kPa, Liquid	0.1032
323.1 K, 259 kPa, Gas	0.01262
